# According to article PMC4236622 (Cancer Chemotherapy and Pharmacology, 2014):
# Tests used:
# [1] = Plasma and tumor pharmacokinetics in tumor-bearing mice (HT29 and NCI-H460, model not distinguished); details: after conventional irinotecan 40 mg/kg iv Days 0, 4, 8
# Protocol: (§1) The length and width of each tumor was recorded 2–3 times a week, and the corresponding tumor volume was estimated using the formula L × W ^2/2 = mm^3, where L and W refer to the larger and smaller perpendicular tumor dimensions, respectively. Animals found moribund or with tumors ≥4,000 mm^3, ulcerated, or sloughed off were euthanized prior to scheduled termination. […] Plasma was harvested, frozen on dry ice, and stored at −80 °C until assayed. Immediately following blood collection, animals were euthanized, and the tumors were excised, frozen in liquid nitrogen, and stored at −80 °C until assayed.
# [2] = Tolerability in mouse xenograft studies (body weight, mortality); type: in vivo; details: all doses, all xenograft models
# Source text: (§2) Tumor volume was estimated as described above.
# [3] = humans, cited from earlier work; for time post-dose at which concentrations fall below 0.1 ng/mL: following irinotecan infusion (350 mg/m2 every 21 days), reference not given
# NCI-N87 gastric tumor = assay: Activity in NCI-N87 gastric tumor xenograft model; type: in vivo, mouse
# Source text: as §2
# (§3) Studies were terminated on Days 59 (HT29), 61 (NCI-H460), 72 (MCF-7), 60 (A2780, q7dx3), 76 (A2780 qdx1), and 84 (NCI-N87).
# (§4) Kaplan–Meier plots were constructed to show the percentage of animals remaining in the study to perform the logrank test. Median tumor growth curves show group median tumor volumes as a function of time. When an animal exited the study due to tumor size, the final tumor volume recorded for the animal was included with the data used to calculate the group median tumor volume at subsequent time points.
# HT29 colon tumor [4] = assay: Activity in HT29 colon tumor xenograft model; type: in vivo, mouse; details: for Median TTE: endpoint 1,000 mm3; for Survivors not reaching tumor endpoint: endpoint 1,000 mm3 or Day 73; for Tumor regression, Complete / Tumor regression, Partial: HT29 colon tumor model, animals/group
# Source text: as §2, §3, §4
# MCF-7 breast tumor = assay: Activity in MCF-7 breast tumor xenograft model; type: in vivo, mouse
# Source text: as §2, §3, §4
# NCI-H460 lung tumor [5] = assay: Activity in NCI-H460 lung tumor xenograft model; type: in vivo, mouse; details: for Median TTE: endpoint 1,500 mm3; for Survivors not reaching tumor endpoint: endpoint 1,500 mm3 or Day 57; for Tumor regression, Complete / Tumor regression, Partial: NCI-H460 lung tumor model, animals/group
# Source text: as §2, §3, §4
# [6] = mice; no reference given; cited from earlier work
# A2780 ovarian tumor = assay: Activity in A2780 ovarian tumor xenograft model; type: in vivo, mouse
# Source text: as §2, §3, §4
# NCI-H460 lung tumor [7] = assay: Tumor PK/PD study in NCI-H460 tumor-bearing mice (tumor volume, inhibitory Emax model); type: in vivo, mouse; details: Emax fixed at 1
# Protocol: as §1
# (§5) Inhibitory E max response PK/PD models based on the Gompertz equation [32] were developed for both tumor types to represent the rate of tumor growth as a function of tumor SN38 concentration. A schematic diagram of the PK/PD model is shown in Online Resource 1. […] The PD parameter values k gr (tumor intrinsic growth rate; day^−1), Limit (limit of tumor growth), and EC 50 (half-maximal effective inhibitory concentrations; μg/g) were optimized using Runge–Kutta 4 integration and the multiple-fit curve fitting module of Berkeley Madonna.
# [8] = set-up: method as in PMID 1651156; details: cited from earlier work
# HT29 colon tumor [9] = assay: Tumor PK/PD study in HT29 tumor-bearing mice (tumor volume, inhibitory Emax model); type: in vivo, mouse; details: Emax fixed at 1
# Protocol: as §1, §5
# [10] = Pharmacokinetics across nonclinical species (mouse, rat, dog); details: rats and dogs, after conventional irinotecan
# Protocol: Blood samples were collected via a peripheral vein into blood collection tubes containing 1/20th the plasma volume of a dimethyl sulfoxide solution containing 50 mM phenylmethyl sulfonyl fluoride and 1 % acetic acid (v/v). Plasma was harvested by centrifugation at 2,100×g for 20 min at 4 °C. Plasma was further stabilized by addition of 1 % acetic acid and stored at −80 °C until assayed.
# Tumor tissue samples were homogenized in a 9× volume of homogenization buffer (containing sodium fluoride, phenylmethyl sulfonyl fluoride, and sodium dodecyl sulfate) prior to extraction of analytes. SN38 from tumor homogenate was extracted using protein precipitation with acetonitrile and quantified by LC–MS/MS using SN38 calibration standards. LC–MS/MS used a Synergy Hydro, 3 µm, 50 × 2.0-mm column, operated at 50 °C, at a flow rate of 0.4 mL/min with a gradient consisting of 0.1 % formic acid in water and 0.1 % formic acid in acetonitrile, coupled to an API 4000 (Applied Biosystems). […] The predicted mouse and measured rat and dog concentration–time profiles were analyzed with noncompartmental methods within WinNonlin (Professional version 5.2; Pharsight Corporation, Mountain View, CA) to estimate customary PK parameters.
# [11] = NCI-N87 gastric tumor model, 60 mg/kg Q7dx3 iv, animals/group
# [12] = MCF-7 breast tumor model, 40 mg/kg Q4dx3 iv, animals/group
# [13] = A2780 ovarian tumor model, 100 mg/kg Q7dx3 iv, animals/group
smiles,measurement,setting,value
CCc1c2c(nc3ccc(OC(=O)N4CCC(N5CCCCC5)CC4)cc13)-c1cc3c(c(=O)n1C2)COC(=O)[C@]3(O)CC [Irinotecan],plasma irinotecan AUC,[1],1.2 µg·days/mL
same,tumor irinotecan AUC,[1],4.2 µg·days/g
same,maximum body weight loss,[2],≤ 16%
same,treatment-related deaths,[2],no treatment-related deaths
same,time post-dose at which concentrations fall below 0.1 ng/mL,[3],5 to 7 days
same,TGD,"NCI-N87 gastric tumor; NCI-N87, 60 mg/kg Q7dx3 iv",12 days
same,Median TTE,"NCI-N87 gastric tumor; NCI-N87, 60 mg/kg Q7dx3 iv, endpoint 800 mm3",30 days
same,Survivors not reaching tumor endpoint,"NCI-N87 gastric tumor; NCI-N87, 60 mg/kg Q7dx3 iv, endpoint 800 mm3 or Day 84",0/10
same,"Tumor regression, Complete",NCI-N87 gastric tumor; [11],0/10
same,"Tumor regression, Partial",NCI-N87 gastric tumor; [11],0/10
same,TGD,"HT29 colon tumor [4]; HT29, 40 mg/kg Q4dx3 iv",10 days
same,Median TTE,"HT29 colon tumor [4]; HT29, 40 mg/kg Q4dx3 iv",26 days
same,Survivors not reaching tumor endpoint,"HT29 colon tumor [4]; HT29, 40 mg/kg Q4dx3 iv",0/10
same,TGD,"HT29 colon tumor [4]; HT29, 90 mg/kg Q4dx3 iv",11 days
same,Median TTE,"HT29 colon tumor [4]; HT29, 90 mg/kg Q4dx3 iv",27 days
same,Survivors not reaching tumor endpoint,"HT29 colon tumor [4]; HT29, 90 mg/kg Q4dx3 iv",0/10
same,regression responses (animals),"HT29 colon tumor [4]; HT29, Q4dx3",no tumor regression
same,"Tumor regression, Complete",HT29 colon tumor [4]; 40 mg/kg Q4dx3 iv,0/10
same,"Tumor regression, Partial",HT29 colon tumor [4]; 40 mg/kg Q4dx3 iv,0/10
same,"Tumor regression, Complete",HT29 colon tumor [4]; 90 mg/kg Q4dx3 iv,0/10
same,"Tumor regression, Partial",HT29 colon tumor [4]; 90 mg/kg Q4dx3 iv,0/10
same,TGD,"MCF-7 breast tumor; MCF-7, 40 mg/kg Q4dx3 iv",22 days
same,Median TTE,"MCF-7 breast tumor; MCF-7, 40 mg/kg Q4dx3 iv, endpoint 700 mm3",59 days
same,Survivors not reaching tumor endpoint,"MCF-7 breast tumor; MCF-7, 40 mg/kg Q4dx3 iv, endpoint 700 mm3 or Day 73",2/10
same,regression responses / regression rate (animals),"MCF-7 breast tumor; MCF-7, Q4dx3",≤ 30%
same,"Tumor regression, Complete",MCF-7 breast tumor; [12],3/10
same,"Tumor regression, Partial",MCF-7 breast tumor; [12],0/10
same,regression responses (animals),"NCI-H460 lung tumor [5]; H460, Q4dx3",no tumor regression
same,TGD,"NCI-H460 lung tumor [5]; NCI-H460, 40 mg/kg Q4dx3 iv",11 days
same,Median TTE,"NCI-H460 lung tumor [5]; NCI-H460, 40 mg/kg Q4dx3 iv",23 days
same,Survivors not reaching tumor endpoint,"NCI-H460 lung tumor [5]; NCI-H460, 40 mg/kg Q4dx3 iv",0/10
same,TGD,"NCI-H460 lung tumor [5]; NCI-H460, 90 mg/kg Q4dx3 iv",12 days
same,Median TTE,"NCI-H460 lung tumor [5]; NCI-H460, 90 mg/kg Q4dx3 iv",24 days
same,Survivors not reaching tumor endpoint,"NCI-H460 lung tumor [5]; NCI-H460, 90 mg/kg Q4dx3 iv",0/10
same,"Tumor regression, Complete",NCI-H460 lung tumor [5]; 40 mg/kg Q4dx3 iv,0/10
same,"Tumor regression, Partial",NCI-H460 lung tumor [5]; 40 mg/kg Q4dx3 iv,0/10
same,"Tumor regression, Complete",NCI-H460 lung tumor [5]; 90 mg/kg Q4dx3 iv,0/10
same,"Tumor regression, Partial",NCI-H460 lung tumor [5]; 90 mg/kg Q4dx3 iv,0/10
same,single-dose LD10,[6],~ 120 mg/kg
same,TGD,"A2780 ovarian tumor; A2780, 100 mg/kg Q7dx3 iv",15 days
same,Median TTE,"A2780 ovarian tumor; A2780, 100 mg/kg Q7dx3 iv, endpoint 2,000 mm3",29 days
same,Survivors not reaching tumor endpoint,"A2780 ovarian tumor; A2780, 100 mg/kg Q7dx3 iv, endpoint 2,000 mm3 or Day 60",0/10
same,"Tumor regression, Complete",A2780 ovarian tumor; [13],0/10
same,"Tumor regression, Partial",A2780 ovarian tumor; [13],0/10
"CCc1c2c(nc3ccc(O)cc13)-c1cc3c(c(=O)n1C2)COC(=O)[C@]3(O)CC [SN38, 10-hydroxy-7-ethyl camptothecin]",EC50 (half-maximal effective inhibitory tumor SN38 concentration),NCI-H460 lung tumor [7],1.2 µg/g
same,"cytotoxicity in vitro, potency compared with irinotecan",[8],"100- to 1,000 fold"
same,t1/2 of SN38,[3]; conventional irinotecan,24 to 47 h
same,time post-dose at which concentrations fall below 0.1 ng/mL,[3],5 to 7 days
same,EC50 (half-maximal effective inhibitory tumor SN38 concentration),HT29 colon tumor [9],0.20 µg/g
same,time post-dose at which plasma SN38 was undetectable,[10],24 h
